Laboratory results reported in publication PMC8007111, “Novel Potent Muscarinic Receptor Antagonists: Investigation on the Nature of Lipophilic Substituents in the 5- and/or 6-Positions of the 1,4-Dioxane Nucleus” (Journal of Medicinal Chemistry, 2020).
Where two headings read alike, the source gives them in different places.

Tests used:
[1] = tested on: MSCs from mouse bone marrow; experiment: Carbachol-induced MSC viability (MTS assay); format: cell-based
Experimental: It is well established that bone marrow MSC behavior is influenced by a variety of signaling systems. In context, cholinergic intramural stimuli and, in particular, muscarinic signals orchestrate MSCs viability and commitment.[11],[12] Considering also the pluripotent MSC nature and their contribution to bone, blood, and systemic homeostasis,[53] viability studies on MSCs were performed to determine the functional profile of 3b, the most interesting compound in this series. […] Successively, the efficacy of 3b in contrasting cell viability induced by the well-known mAChR agonist carbachol was evaluated. […] Further research on the intracellular mechanistic outcomes of 3b on MSCs remains mandatory.
The in vitro studies were performed by using bone marrow MSCs as a model. Male BALB/c mice (Harlan Italy SrL, Milano, Italy) (8 weeks old; body weight ∼24.5 g; n = 4) were kept in a laminar-flow cage in a standardized environmental condition. Food (Harlan, Italy), and water was supplied ad libitum. Mice were sacrificed by CO2 narcosis and cervical dislocation in accordance with the recommendations of the Italian Ethical Committee and under the supervision of authorized investigators. Long bones (femurs and tibiae) were dissected and cleaned from skin, muscle, and connective tissues as much as possible. Bones were placed in a culture dish containing sterile PBS. Then, the bone cavity was flushed in DMEM with a syringe in order to collect the bone marrow cells into a 50 mL sterile tube. […] After 2 weeks of initiating culture, cells were washed with PBS, detached by trypsinization, counted, and plated at the density of 5,000 cells/well in 96 culture plates (Costar Corp., Milano, Italy) in DMEM containing 10% HIFCS, penicillin, and streptomycin.
MSCs were treated with compound 3b (from 10^–4 to 10^–10 M) for 24 h. […] At the end of each procedure, the MSCs viability was measured by MTS assay. […] The quantity of the formazan product was directly proportional to the number of living cells in culture. The colored formazan was measured by reading the absorbance at 490 nm using a […] plate reader.

urinary bladder = tested on: urinary bladder; set-up: method as in PMID 22243489; details: anesthetized rats; compared to oxybutynin; cited from earlier work
hM1 mAChR [2] = molecular target: T1, hM1 mAChR (Homo sapiens, UniProt P11229); experiment: [3H]NMS inhibition radioligand binding, hM1 in CHO-K1 cell membranes; details: [3H]NMS, CHO-K1 cell membranes; mean ± S.E.M.
T1 construct: expressed in transfected cells; host or cells: CHO-K1 (membrane preparation)
T1 sequence (P11229 1-460): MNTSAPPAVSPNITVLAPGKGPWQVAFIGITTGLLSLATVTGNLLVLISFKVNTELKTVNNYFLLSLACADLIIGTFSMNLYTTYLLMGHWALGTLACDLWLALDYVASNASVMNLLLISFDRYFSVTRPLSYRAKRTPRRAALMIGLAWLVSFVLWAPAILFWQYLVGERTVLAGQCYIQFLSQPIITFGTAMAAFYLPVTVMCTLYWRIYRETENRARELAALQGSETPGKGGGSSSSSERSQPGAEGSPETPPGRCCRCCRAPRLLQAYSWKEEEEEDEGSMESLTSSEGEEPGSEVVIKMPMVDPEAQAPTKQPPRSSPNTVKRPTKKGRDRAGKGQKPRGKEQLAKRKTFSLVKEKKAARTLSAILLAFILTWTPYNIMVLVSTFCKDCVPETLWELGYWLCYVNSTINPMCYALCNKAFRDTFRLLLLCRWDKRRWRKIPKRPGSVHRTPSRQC

hM2 mAChR [3] = molecular target: T2, hM2 mAChR (Homo sapiens, UniProt P08172); experiment: [3H]NMS inhibition radioligand binding, hM2 in CHO-K1 cell membranes; details: [3H]NMS, CHO-K1 cell membranes; mean ± S.E.M.
T2 construct: expressed in transfected cells; host or cells: CHO-K1 (membrane preparation)
T2 sequence (P08172 1-466): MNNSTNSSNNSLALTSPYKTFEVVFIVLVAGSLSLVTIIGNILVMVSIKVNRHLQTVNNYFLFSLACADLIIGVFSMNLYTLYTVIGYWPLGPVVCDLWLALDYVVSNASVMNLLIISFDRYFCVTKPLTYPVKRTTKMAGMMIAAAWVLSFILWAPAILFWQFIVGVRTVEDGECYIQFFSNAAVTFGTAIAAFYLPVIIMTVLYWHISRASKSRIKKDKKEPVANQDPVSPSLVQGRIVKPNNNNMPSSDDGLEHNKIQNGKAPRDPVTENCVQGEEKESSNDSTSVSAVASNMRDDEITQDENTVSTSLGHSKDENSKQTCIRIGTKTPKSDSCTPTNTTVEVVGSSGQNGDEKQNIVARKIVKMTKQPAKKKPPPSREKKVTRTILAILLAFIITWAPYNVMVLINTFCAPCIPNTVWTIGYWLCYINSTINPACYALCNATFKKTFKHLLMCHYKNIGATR

hM3 mAChR [4] = molecular target: T3, hM3 mAChR (Homo sapiens, UniProt P20309); experiment: [3H]NMS inhibition radioligand binding, hM3 in CHO-K1 cell membranes; details: [3H]NMS, CHO-K1 cell membranes; mean ± S.E.M.
T3 construct: expressed in transfected cells; host or cells: CHO-K1 (membrane preparation)
T3 sequence (P20309 whole entry): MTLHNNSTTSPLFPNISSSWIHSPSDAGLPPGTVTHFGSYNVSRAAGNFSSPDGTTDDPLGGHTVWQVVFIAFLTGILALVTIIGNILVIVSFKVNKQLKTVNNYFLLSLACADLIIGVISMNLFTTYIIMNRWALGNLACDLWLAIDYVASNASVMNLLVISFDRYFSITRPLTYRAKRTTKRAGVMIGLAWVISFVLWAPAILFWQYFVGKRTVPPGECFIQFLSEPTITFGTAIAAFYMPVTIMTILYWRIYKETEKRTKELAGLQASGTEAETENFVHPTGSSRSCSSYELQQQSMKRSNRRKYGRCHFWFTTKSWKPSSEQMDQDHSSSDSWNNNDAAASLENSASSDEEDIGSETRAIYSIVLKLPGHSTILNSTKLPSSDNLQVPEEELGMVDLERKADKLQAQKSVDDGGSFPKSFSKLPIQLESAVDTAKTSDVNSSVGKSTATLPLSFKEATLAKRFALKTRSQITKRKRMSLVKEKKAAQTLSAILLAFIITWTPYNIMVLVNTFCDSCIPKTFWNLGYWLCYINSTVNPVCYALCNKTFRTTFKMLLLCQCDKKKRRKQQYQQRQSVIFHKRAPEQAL

hM4 mAChR [5] = molecular target: T4, hM4 mAChR (Homo sapiens, UniProt P08173); experiment: [3H]NMS inhibition radioligand binding, hM4 in CHO-K1 cell membranes; details: [3H]NMS, CHO-K1 cell membranes; mean ± S.E.M.
T4 construct: expressed in transfected cells; host or cells: CHO-K1 (membrane preparation)
T4 sequence (P08173 1-479): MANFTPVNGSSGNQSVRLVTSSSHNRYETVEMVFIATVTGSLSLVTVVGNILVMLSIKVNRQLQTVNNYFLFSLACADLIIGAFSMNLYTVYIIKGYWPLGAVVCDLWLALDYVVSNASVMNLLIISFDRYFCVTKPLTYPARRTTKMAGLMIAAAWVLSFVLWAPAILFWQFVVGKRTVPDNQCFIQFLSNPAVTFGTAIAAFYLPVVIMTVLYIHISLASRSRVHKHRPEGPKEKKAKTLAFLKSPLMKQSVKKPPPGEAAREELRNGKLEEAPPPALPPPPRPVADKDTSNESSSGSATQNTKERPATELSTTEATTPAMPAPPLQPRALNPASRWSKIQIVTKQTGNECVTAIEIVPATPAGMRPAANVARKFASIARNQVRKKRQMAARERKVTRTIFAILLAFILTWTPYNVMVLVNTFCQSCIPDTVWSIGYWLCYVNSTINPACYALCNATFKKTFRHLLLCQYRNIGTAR

hM5 mAChR [6] = molecular target: T5, hM5 mAChR (Homo sapiens, UniProt P08912); experiment: [3H]NMS inhibition radioligand binding, hM5 in CHO-K1 cell membranes; details: [3H]NMS, CHO-K1 cell membranes; mean ± S.E.M.
T5 construct: expressed in transfected cells; host or cells: CHO-K1 (membrane preparation)
T5 sequence (P08912 1-532): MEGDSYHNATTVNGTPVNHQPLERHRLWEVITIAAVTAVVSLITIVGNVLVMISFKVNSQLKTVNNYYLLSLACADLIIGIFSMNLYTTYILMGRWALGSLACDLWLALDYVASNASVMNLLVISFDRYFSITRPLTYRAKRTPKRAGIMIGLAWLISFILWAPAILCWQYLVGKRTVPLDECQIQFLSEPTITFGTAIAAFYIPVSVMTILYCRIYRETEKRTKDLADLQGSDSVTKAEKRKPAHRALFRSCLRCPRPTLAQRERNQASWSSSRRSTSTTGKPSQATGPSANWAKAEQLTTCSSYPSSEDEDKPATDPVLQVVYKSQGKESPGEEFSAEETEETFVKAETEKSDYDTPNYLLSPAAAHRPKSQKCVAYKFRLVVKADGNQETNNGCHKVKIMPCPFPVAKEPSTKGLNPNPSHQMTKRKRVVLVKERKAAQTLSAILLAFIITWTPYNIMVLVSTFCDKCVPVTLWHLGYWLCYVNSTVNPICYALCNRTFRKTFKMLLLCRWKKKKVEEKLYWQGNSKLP

hM1 mAChR [7] = molecular target: T1, hM1 mAChR; details: cited from earlier work
hM2 mAChR [8] = molecular target: T2, hM2 mAChR; details: cited from earlier work
hM3 mAChR [9] = molecular target: T3, hM3 mAChR; details: cited from earlier work
hM4 mAChR [10] = molecular target: T4, hM4 mAChR; details: cited from earlier work
hM5 mAChR [11] = molecular target: T5, hM5 mAChR; details: cited from earlier work

C[N+](C)(C)CCOC(N)=O [carbachol]
effect of agonist on MSC viability ([1]; carbachol 10^–10 M, 24 h): increase of carbachol-induced MSC viability

C[N+](C)(C)C[C@H]1COCC(c2ccccc2)(c2ccccc2)O1 [(S)-(−)-2]
reduction of volume-induced contractions of the urinary bladder (urinary bladder): more efficaciously reduced the volume-induced contractions of the urinary bladder

C[N+](C)(C)C[C@@H]1COC[C@@](c2ccccc2)(C2CCCCC2)O1.[I-] (relative stereo) [3a, 1-((2R*,6S*)-6-Cyclohexyl-6-phenyl-1,4-dioxan-2-yl)-N,N,N-trimethylmethanaminium Iodide]
pKi hM1 (hM1 mAChR [2]): 8.03 ± 0.09 | pKi hM2 (hM2 mAChR [3]): 7.36 ± 0.12 | pKi hM3 (hM3 mAChR [4]): 7.84 ± 0.13 | pKi hM4 (hM4 mAChR [5]): 7.51 ± 0.08 | pKi hM5 (hM5 mAChR [6]): 7.26 ± 0.05 | melting point: 270 to 271 °C

O=C(O[C@H]1C[C@H]2CC[C@@H](C1)[N+]21CCCC1)C(O)(c1ccccc1)c1ccccc1 [trospium]
pKi hM1 (hM1 mAChR [7]): 8.46 | pKi hM2 (hM2 mAChR [8]): 8.94 | pKi hM3 (hM3 mAChR [9]): 8.99 | pKi hM4 (hM4 mAChR [10]): 8.84 | pKi hM5 (hM5 mAChR [11]): 8.22

CN1[C@@H]2CC[C@H]1C[C@@H](OC(=O)C(CO)c1ccccc1)C2 (some centres unmarked) [atropine]
effect on carbachol-induced MSC viability ([1]; pre-incubation 1 h, then carbachol 10^–10 M for 24 h): able to contrast the increase of carbachol-induced MSC viability
